We go through one sequence from patent US7498046B2, “Composition for inducing immune response comprising inverted microsomes” (Queen Mary & Westfield College, priority 2003, dated 2009).

One experiment deals with T1, H2-Kb molecules (Mus musculus, UniProt P01901).
T1 construct: incubated with microsomes of RAW309Cr.1 and living RAW309Cr.1 cells under UV irradiation; endogenous in cells; host or cells: RAW309Cr.1 murine macrophage cell line (purified ER microsomes, or living cells)
T1 sequence (P01901 22-369): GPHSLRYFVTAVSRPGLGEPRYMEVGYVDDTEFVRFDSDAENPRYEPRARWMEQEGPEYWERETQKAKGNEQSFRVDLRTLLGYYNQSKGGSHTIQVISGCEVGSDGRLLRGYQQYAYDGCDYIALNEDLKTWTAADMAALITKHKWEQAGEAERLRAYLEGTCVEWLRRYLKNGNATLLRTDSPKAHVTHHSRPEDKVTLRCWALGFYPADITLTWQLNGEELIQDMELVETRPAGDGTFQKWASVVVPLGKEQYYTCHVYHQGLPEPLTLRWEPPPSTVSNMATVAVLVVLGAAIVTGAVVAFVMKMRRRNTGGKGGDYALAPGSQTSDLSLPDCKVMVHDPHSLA
T1 sequence (P01887 21-119 partner): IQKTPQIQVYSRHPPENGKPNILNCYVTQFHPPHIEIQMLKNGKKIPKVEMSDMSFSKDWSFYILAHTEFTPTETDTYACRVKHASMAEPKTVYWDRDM
The experiment can be described thus: Photo-crosslinking peptide binding assay of 125I-labelled ANB-NOS-OVA peptide to H2-Kb in microsomes or on the surface of RAW309Cr.1 cells. The note with it: competitor at the concentration of report peptides. Also noted: species or system murine. The protocol:
Peptide OVA 257-264 (SIINFEKL) was modified by substitution of third residue isoleucine to tyrosine in order for iodination and by covalently coupling a phenylazide with a nitro group on the ε-amino group of lysine at position seven. This nitro group can be photoactivated. The crosslinker modification was performed by mixing 0.5 mg of ANB-NOS (N-5-azido-2-nitrobenzoyloxysuccinimide) in 200 μl DMSO with 100 μg peptide in 100 μl PBS and 50 μl CPAS (3-[cyclohexylamino]-1-propanesulfonic acid) (0.5 M, pH 10). The reaction was allowed to proceed for 30 min on ice. To remove the excess ANB-NOS and ions, the mixture was purified by gel filtration on Sephadex G-10 and subsequently by HPLC. […]
To detect the peptide-receptive MHC class I molecules in the microsomal membranes, a crosslinker (ANB-NOS) was conjugated to the ε-amino group of the lysine residue of an H2-Kb-binding ovalbumin (OVA) peptide (residues 257-264, SIINFEKL) and substituted the isoleucine at position 3 with tyrosine to allow for iodination. […] For a quantitative comparison of peptide-receptive H2-Kb in microsomes and on cell surface of living RAW309Cr.1, the modified OVA peptide was labelled by ^125I and incubated with microsomes of RAW309Cr.1 and living RAW309Cr.1 cells under UV irradiation. Peptide-bound H2-Kb molecules were subsequently analysed by immunoprecipitation with an anti-H2 antibody Y3.

Experiment [1] has as its system T cells isolated from spleens. The experiment can be described thus: In vivo immunisation of C57BL/6 mice, spleen T cells cross-stimulated in vitro (proliferation, IL-2). To be noted: C57BL/6, injected twice subcutaneously, one week interval, T cells six days after second injection. The source says:
C57BL/6 (H-2b) mice were primed […]. by OVA-edited microsomes or Ld-peptide loaded microsomes or OVA peptide or OVA-pulsed RAW309Cr.1 cells and challenged by same stimulus after seven days. Six days after the challenge, enriched T cells were isolated from spleens and cultured at 10^5 cells/well with stimulus indicated. The RAW309Cr.1 cells were irradiated before co-culture with T cells. After three days, supernatants were harvested for cytokine ELISA (b) and cultures pulsed with [^3H]thymidine (a). The results are representative of groups of at least three mice per treatment group and the experiment was repeated four times with similar results. Error bars indicate the SEM of triplicate cultures. Similar set of experiments performed in Balb/c (H-2d) mice served as negative control.
To further examine the ability of OVA-edited microsomes to induce immune responses in vivo, OVA-edited microsomes from RAW309Cr.1 cells, microsomes loaded with Ld-specific peptide, soluble OVA peptides, RAW309Cr.1 pulsed with OVA peptides and PBS were used to induce immune response in vivo. Five groups of C57BL/6 or Balb/c mice, each group consisting of five mice, were injected twice subcutaneously with above stimuli, respectively. The interval between injections was one week. […]

The next experiment concerns B3Z T cell hybridoma. In words: Activation of B3Z T cell hybridoma (LacZ activity, IL-2 ELISA). Format: cell-based. To be noted: soluble peptide. The protocol: Microsomes from 2×10^5 RAW309Cr.1 cells were used to load OVA or Ld-specific peptide as described in Material and Methods. 2×10^5 RAW309Cr.1 cells were pulsed with OVA peptide (see Material and Methods). After washing, peptide-pulsed 2×10^5 RAW309Cr.1 cells, OVA-loaded microsomes, Ld-peptide loaded microsomes, and the microsomes without peptide were co-cultured with 10^5 B3Z cells for over night. A) After washing with PBS, LacZ activity in B3Z cells was assayed by total cellular lysates with the LacZ substrate ONPG. The absorbance ([…]) was read after incubation for four hours at 37° C. B3Z cells cultured with 100 nM OVA peptide and normal medium were used as positive and negative control for the B3Z stimulation. B) The supernatants of these cultures were submitted for measuring IL-2 production by ELISA. The experiment was repeated four times with similar results. Error bars indicate the SEM of triplicate cultures. […]
The prepared stimuli including peptide-edited microsomes, peptide-pulsed RAW309Cr.1 cells, OVA peptide, were added to culture of 10^5 B3Z cells in a total of 200 μl. […] The linear range of OVA-response was determined by the addition of serial dilutions of SIINFEKL to the medium due to that the B3Z cells themselves express Kb and present SIINFEKL.
(In general: ELISA stands for enzyme-linked immunosorbent assay.)

On to SIINFEKL [OVA peptide], for which, in the experiment with H2-Kb molecules, the “Competition of the labelled report OVA peptide binding to Kb” value turned out to be 50%. The “Induction of T cell responses by the immunising stimulus (proliferation of spleen T cells)” value in experiment [1] is “responded to OVA-edited microsomes in vitro”. The “IL-2 production by B3Z cells” value in the experiment with B3Z T cell hybridoma is on record as “could induce IL-2 production”.
